Test results: patent publication US8653117B2, “Composition comprising at least one oxazoline to inhibit migration of langerhans cells, and uses thereof” (Laboratoires Expanscience, priority 2001, dated 2014)

Experiments:
[1] = tested on: dendritic cells generated in vitro from CD34+ precursors derived from blood from the umbilical cord; experiment: Migration of dendritic cells generated in vitro from CD34+ precursors of umbilical cord blood, activated by hapten BB; format: cell-based; details: for inhibition at 1 µM: Dendritic cell, hapten BB; for Percentage of dendritic cells generated in vitro that migrated: BB + OX100 (1 μM)
Description: Mononucleated cells were obtained from blood from the umbilical cord of healthy donors by centrifuging on Ficoll. The CD34+ cells were then purified by immunoselection using a specific antibody and magnetic balls (Miltenyi Biotech, Germany). The CD34+ cells were cultivated in the presence of GM-CSF (100 ng/ml), TNF-α (2.5 ng/ml) in RPMI to which 10% calf fetus serum was added for 5 days. TGF-β1, a factor that encourages differentiation of cells to the Langerhans cells […], was added on the 5th day of culture.
Preparation of Media (Ditto Example 2).
Cells were treated by hapten BB on the 7th day (Brandowski base, 1.17 μg/ml) for 24 h, and were then subjected to the migration test.
Migration of LCs (Ditto Example 2).

[2] = tested on: Langerhans cells (LC) and dendritic cells (DC) in mice; experiment: Migration of dendritic cells from ear skin to draining ganglions in mice sensitized by FITC hapten; format: in vivo; details: for Migration inhibition in %: FITC hapten; for migration of DCs to LGs (in words): OX100 alone, mice sensitized by FITC hapten
Description: FITC (Fluoresceine isothiocyanate, Sigma, St Louis, Mo.) was extemporaneously diluted in an acetone mix (dibutylphthalate (1:1)).
Oxazoline OX100 and LU105 (LU 105 is an MMP inhibitor, corresponding to a peptide extract of white lupin marketed by the Expanscience Company under the brand name Actimp 193®) were supplied by “Laboratoires Expanscience” and formulated alone or association with each other in an inert vehicle compatible with a topical application (oxazoline OX100 (0.1%) LU105 (2%)). The different formulations were applied on the ears of mice twice per day for 4 consecutive days. 1.5% of FITC was applied on both ears (one treated and the other not treated (Control)) three hours after the last application.
The effect of the two molecules was evaluated in vivo in mice. 1.5% FITC (2×5 μl) was applied on the skin of both ears. 24 h later, the mice were sacrificed and a cellular suspension was prepared from auricular and cervical ganglions (draining ganglions, hereinafter denoted GL) or from the poplital ganglions (non-draining ganglions, negative control). The tissues were cut and cells separated by filtration (100 μm filter, Falcon; Becton Dickinson) and then washed. The cells were then centrifuged for 10 minutes at 600×g (m×s^−2) on a metrizamide gradient (14.5% in RPMI 1640; 7.5% SVF). The interface cells were retrieved, rinsed and then marked with an anti-CDS86 PE-conjugated, biot-MHC CLII mAbs AC plus streptavidine-Cya (PharMingen) and analyzed by flux cytometry. Only the FITC^+, PE^+ and Cya^+ cells are counted since they represent the population of cells that migrated from the skin to GLs following the application of hapten.
FITC (Fluoresceine isothiocyanate, Sigma, St. Louis, Mo.) was diluted extemporaneously in a mixture of acetone and dibutylphthalate (1:1).
Oxazoline OX100 and AK100 (described above) were supplied by “Laboratoires Expanscience” and formulated alone or in association in an inert vehicle compatible with a topical application [OX100 (0.05%) AK100 (0.05%)]. The different formulations were applied on the ears of mice twice per day for 4 consecutive days. Three hours after the last application, 1.5% of FITC was applied on both ears (one treated and the other not treated (Control)).

[3] = tested on: Langerhans cells freshly isolated from human skin; experiment: Migration of Langerhans cells freshly isolated from human skin, sensitized by DNSB, two-compartment Matrigel chamber; format: cell-based
Description: Epidermal cell suspensions were obtained by enzymatic treatment (0.05% trypsine for 18 h at +4° C.) of fragments of normal human skin taken from plastic surgery. The suspensions obtained contain an average of 2 to 4% of LC. Obtaining suspensions containing an average of 70% of LC is based on the principle of centrifuging on density gradient (Lymphoprep™) and elimination of keratinocytes.
The basic medium chosen for the entire study was PRMI 1640 (Gibco BRL, France). The OX100 molecule supplied by Pharmascience, with a concentration of 10^−2 M in solution in DMSO (Dimethyl Sulfoxide) was diluted in RPMI-1640 and tested at 1 μM.
The sensitizing agent was DNSB (Sigma Aldrich), a soluble form of DNCB (dinitro-chloro-benzene) solubilized in RPMI-BSA and used at a concentration of 50 μM.
A culture chamber system with two compartments (Falcon, Becton Dickinson, France) was used. The upper compartment is separated from the lower compartment by a membrane with 8 μm porosity, on which 50 μg/cm^2 Matrigel was deposited. […] After 18 h incubation at 37° C., the number of living cells that passed through the Matrigel and that are located in the lower compartment is counted under a microscope (the LCs are easily identifiable by their dendritic form). […]

For CCCCCCCCCCCC1=NC(C)(C)CO1 [OX100, 2-undecyl-4,4-dimethyl-1,3-oxazoline], the “migration of dendritic cells generated in vitro and activated by hapten BB (in words)” value ([1]; 1 μM) was “significantly inhibits”, the inhibition at 1 µM ([1]; experiment 1, 1 μM) was 29% and the inhibition at 1 µM ([1]; experiment 2, 1 μM) was 15%. The “Percentage of dendritic cells generated in vitro that migrated” value ([1]; Experiment 1, BB alone 17) was 12%, the “Percentage of dendritic cells generated in vitro that migrated” value ([1]; Experiment 2, BB alone 24) was 20.3% and the “Migration inhibition in %” value ([2]; Example 4, OX100 0.1% topical on ears twice per day for 4 days) was 30%. For the same compound, the “migration of DCs to LGs (in words)” value ([2]; Example 4) was “significantly inhibits”, the “Migration inhibition in %” value ([2]; Example 5, OX100 0.05% topical on ears twice per day for 4 days) was 15% and the “migration of DCs to LGs (in words)” value ([2]; Example 5) was “significantly inhibits”. For the same compound, the “migration of LCs induced by DNSB (in words)” value ([3]; 1 μM) was “significantly inhibits” and the LC migration index ([3]; DNSB + OX100 (1 μM), 18 h, control cells set to 1, DNSB alone 2.55) was 0.98.
With CCCCCCCCCCCC(=O)NC(C)(C)CO [AK100] the “Migration inhibition in %” value ([2]; Example 5, AK100 0.05% topical on ears twice per day for 4 days) was 15%.
